Like-named read-outs stand apart in the source and are kept apart here.

A word on the IC50: it is the point on the concentration scale where inhibition reaches its midpoint.

The target in the test is hQC (Homo sapiens, UniProt Q16769). The test can be described thus: Inhibitor assay for glutaminyl cyclase activity (fluorometric, H-Gln-βNA / H-Gln-AMC). In kind it is biochemical. Put shortly: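 Coupled fluorometric assay at 30 °C with pyroglutamyl aminopeptidase, in Tris/HCl pH 8.0 with EDTA, substrate H-Gln-βNA (0.2 mM; ex/em 320/410 nm) or H-Gln-AMC (ex/em 380/460 nm), initiated by QC. Screening: 4 mM inhibitor, substrate at 1 KM; Ki from progress curves fitted to competitive inhibition.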
hQC, sequence (Q16769 29-361): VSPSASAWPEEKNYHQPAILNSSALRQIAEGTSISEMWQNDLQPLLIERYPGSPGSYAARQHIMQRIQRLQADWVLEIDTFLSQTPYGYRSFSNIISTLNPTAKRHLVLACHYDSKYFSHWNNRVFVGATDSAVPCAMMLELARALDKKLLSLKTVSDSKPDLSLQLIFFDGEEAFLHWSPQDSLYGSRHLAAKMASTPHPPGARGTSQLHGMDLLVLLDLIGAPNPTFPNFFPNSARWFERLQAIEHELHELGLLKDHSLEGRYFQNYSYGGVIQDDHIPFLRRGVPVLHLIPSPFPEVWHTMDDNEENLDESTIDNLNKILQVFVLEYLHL

The mark [1] stands for this setting: compound from preparative synthesis, purified, read-out: IC50 hQC.

In the case of `CCC/C=C/C1C(CCCCC)=C(O)C(=O)N1CCCn1ccnc1` (stereo not drawn) [Compound 185, 3-Hydroxy-1-(3-imidazol-1-yl-propyl)-5-(pent-1-enyl)-4-pentyl-1,5-dihydro-pyrrol-2-one], the half-maximal inhibitory concentration (IC50) (read-out: IC50) came out at 1300 nM.
With `CCCCCC1=C(O)C(=O)N(CCCn2ccnc2)C1C(C)CC` (stereo not drawn) [Compound 186, 5-sec-Butyl-3-hydroxy-1-(3-imidazol-1-yl-propyl)-4-pentyl-1,5-dihydro-pyrrol-2-one], the IC50 (read-out: IC50) came to 400 nM.
For `CCCCCC1=C(O)C(=O)N(CCCn2ccnc2)C1CCC` (stereo not drawn) [Compound 187, 3-Hydroxy-1-(3-imidazol-1-yl-propyl)-4-pentyl-5-propyl-1,5-dihydro-pyrrol-2-one], under “read-out: IC50”, the half-inhibitory concentration (IC50) was 40 nM.
With `CCCCCC1=C(O)C(=O)N(CCCn2ccnc2)C1c1cc[nH]n1` (stereo not drawn) [Compound 188, 3-Hydroxy-1-(3-imidazol-1-yl-propyl)-4-pentyl-5-(1H-pyrazol-3-yl)-1,5-dihydro-pyrrol-2-one], the IC50 (read-out: IC50) amounted to 400 nM.
Still for that read-out and setting: the same measure for `CCCCCC1=C(O)C(=O)N(CCCn2ccnc2)C1C(O)CO` (stereo not drawn) [Compound 189, 5-(1,2-Dihydroxy-ethyl)-3-hydroxy-1-(3-imidazol-1-yl-propyl)-4-pentyl-1,5-dihydro-pyrrol-2-one]: 400 nM.
Still for that read-out and setting: under `CCCCCC1=C(O)C(=O)N(CCCn2ccnc2)C1/C=C/C(C)C` (stereo not drawn) [Compound 190, 3-Hydroxy-1-(3-imidazol-1-yl-propyl)-5-(3-methyl-but-1-enyl)-4-pentyl-1,5-dihydro-pyrrol-2-one] stands 400 nM.
As to `CCCCCC1=C(O)C(=O)N(CCCn2ccnc2)C1c1ccc(C)o1` (stereo not drawn) [Compound 191, 3-Hydroxy-1-(3-imidazol-1-yl-propyl)-5-(5-methyl-furan-2-yl)-4-pentyl-1,5-dihydro-pyrrol-2-one], the half-maximal inhibitory concentration (IC50) was found to be 1750 nM under setting [1] and 40 nM (read-out: IC50).
On to `CCCCCC1=C(O)C(=O)N(CCCn2ccnc2)C1c1ccc2[nH]ccc2c1` (stereo not drawn) [Compound 192, 3-Hydroxy-1-(3-imidazol-1-yl-propyl)-5-(1H-indol-5-yl)-4-pentyl-1,5-dihydro-pyrrol-2-one], for which the IC50 (read-out: IC50) came to 40 nM.
Take `CCCCCC1=C(O)C(=O)N(CCCn2ccnc2)C1c1ccc(OC)cc1` (stereo not drawn) [Compound 193, 3-Hydroxy-1-(3-imidazol-1-yl-propyl)-5-(4-methoxy-phenyl)-4-pentyl-1,5-dihydro-pyrrol-2-one]: the half-inhibitory concentration (IC50) runs as follows: under setting [1], 1040 nM; (read-out: IC50) 40 nM.
For the compound `CCCCCC1=C(O)C(=O)N(CCCn2ccnc2)C1c1ccccc1O` (stereo not drawn) [Compound 194, 3-Hydroxy-5-(2-hydroxy-phenyl)-1-(3-imidazol-1-yl-propyl)-4-pentyl-1,5-dihydro-pyrrol-2-one], the concentration for half-maximal inhibition (IC50) (read-out: IC50) was determined as 40 nM.
Take `CCCCCC1=C(O)C(=O)N(CCCn2ccnc2)C1c1ccc(C)c(C)c1` (stereo not drawn) [Compound 195, 5-(3,4-Dimethyl-phenyl)-3-hydroxy-1-(3-imidazol-1-yl-propyl)-4-pentyl-1,5-dihydro-pyrrol-2-one]: under “read-out: IC50”, the half-inhibitory concentration (IC50) worked out at 40 nM.
`CCCCCC1=C(O)C(=O)N(CCCn2ccnc2)C1CCCCC` (stereo not drawn) [Compound 196, 3-Hydroxy-1-(3-imidazol-1-yl-propyl)-4,5-dipentyl-1,5-dihydro-pyrrol-2-one]: the IC50 (read-out: IC50) was 40 nM.
Still for that read-out and setting: the same measure for `CCCCCC1=C(O)C(=O)N(CCCn2ccnc2)C1C` (stereo not drawn) [Compound 197, 3-Hydroxy-1-(3-imidazol-1-yl-propyl)-5-methyl-4-pentyl-1,5-dihydro-pyrrol-2-one]: 40 nM; for `CCCCCC1=C(O)C(=O)N(CCCn2ccnc2)C1c1ccc(CO)o1` (stereo not drawn) [Compound 198, 3-Hydroxy-5-(5-hydroxymethyl-furan-2-yl)-1-(3-imidazol-1-yl-propyl)-4-pentyl-1,5-dihydro-pyrrol-2-one]: 40 nM.
`CCCCCC1=C(O)C(=O)N(CCCn2ccnc2)C1c1ccccc1` (stereo not drawn) [Compound 199, 3-Hydroxy-1-(3-imidazol-1-yl-propyl)-4-pentyl-5-phenyl-1,5-dihydro-pyrrol-2-one]: the half-maximal inhibitory concentration (IC50) (read-out: IC50) was determined as 40 nM.
Turning to `CCCCCC1=C(O)C(=O)N(CCCn2ccnc2)C1C1CCC=CO1` (stereo not drawn) [Compound 200, 5-(3,4-Dihydro-2H-pyran-2-yl)-3-hydroxy-1-(3-imidazol-1-yl-propyl)-4-pentyl-1,5-dihydro-pyrrol-2-one], the IC50 (read-out: IC50) was found to be 40 nM.
On the same count and under the same terms, under `CCCCCC1=C(O)C(=O)N(CCCn2ccnc2)C1C1=CCCCC1` (stereo not drawn) [Compound 201, 5-Cyclohex-1-enyl-3-hydroxy-1-(3-imidazol-1-yl-propyl)-4-pentyl-1,5-dihydro-pyrrol-2-one] stands 1300 nM; under `CCCCCC1=C(O)C(=O)N(CCCn2ccnc2)C1c1c[nH]c2cc(C)ccc12` (stereo not drawn) [Compound 202, 3-Hydroxy-1-(3-imidazol-1-yl-propyl)-5-(6-methyl-1H-indol-3-yl)-4-pentyl-1,5-dihydro-pyrrol-2-one], 40 nM.
Same read-out and setting: under `CCCCCC1=C(O)C(=O)N(CCCn2ccnc2)C1C(F)(F)F` (stereo not drawn) [Compound 203, 3-Hydroxy-1-(3-imidazol-1-yl-propyl)-4-pentyl-5-trifluoromethyl-1,5-dihydro-pyrrol-2-one] stands 40 nM.
In the case of `CCCCCC1=C(O)C(=O)N(CCCn2ccnc2)C1c1c[nH]c2ccccc12` (stereo not drawn) [Compound 204, 3-Hydroxy-1-(3-imidazol-1-yl-propyl)-5-(1H-indol-3-yl)-4-pentyl-1,5-dihydro-pyrrol-2-one], the IC50 (read-out: IC50) was found to be 40 nM.
Consider `CCCCCC1=C(O)C(=O)N(CCCn2ccnc2)C1c1ncc[nH]1` (stereo not drawn) [Compound 205, 3-Hydroxy-5-(1H-imidazol-2-yl)-1-(3-imidazol-1-yl-propyl)-4-pentyl-1,5-dihydro-pyrrol-2-one], for which the IC50 (read-out: IC50) came out at 2200 nM.
As to `CCCCCC1=C(O)C(=O)N(CCCn2ccnc2)C1Cc1ccccc1` (stereo not drawn) [Compound 206, 5-Benzyl-3-hydroxy-1-(3-imidazol-1-yl-propyl)-4-pentyl-1,5-dihydro-pyrrol-2-one], the half-maximal inhibitory concentration (IC50) (read-out: IC50) amounted to 400 nM.
Same read-out and setting: the same measure for `CCCCCC1=C(O)C(=O)N(CCCn2ccnc2)C1c1c(O)ccc2ccccc12` (stereo not drawn) [Compound 207, 3-Hydroxy-5-(2-hydroxy-naphthalen-1-yl)-1-(3-imidazol-1-yl-propyl)-4-pentyl-1,5-dihydro-pyrrol-2-one]: 3100 nM; for `CCCCCC1=C(O)C(=O)N(CCCn2ccnc2)C1c1ccccn1` (stereo not drawn) [Compound 208, 3-Hydroxy-1-(3-imidazol-1-yl-propyl)-4-pentyl-5-pyridin-2-yl-1,5-dihydro-pyrrol-2-one]: 400 nM; for `CCCCCC1=C(O)C(=O)N(CCCn2ccnc2)C1c1ccncc1` (stereo not drawn) [Compound 209, 3-Hydroxy-1-(3-imidazol-1-yl-propyl)-4-pentyl-5-pyridin-4-yl-1,5-dihydro-pyrrol-2-one]: 40 nM.
With `CCCCCC1=C(O)C(=O)N(CCCn2ccnc2)C1c1cccs1` (stereo not drawn) [Compound 210, 3-Hydroxy-1-(3-imidazol-1-yl-propyl)-4-pentyl-5-thiophen-2-yl-1,5-dihydro-pyrrol-2-one], the half-maximal inhibitory concentration (IC50) under setting [1] worked out at 588 nM and the IC50 (read-out: IC50) turned out to be 40 nM.
As to `CCCCCC1=C(O)C(=O)N(CCCn2ccnc2)C1CO` (stereo not drawn) [Compound 211, 3-Hydroxy-5-hydroxymethyl-1-(3-imidazol-1-yl-propyl)-4-pentyl-1,5-dihydro-pyrrol-2-one], the IC50 (read-out: IC50) came out at 400 nM.
With `CCCCCC1=C(O)C(=O)N(CCCn2ccnc2)C1C1CC1` (stereo not drawn) [Compound 212, 5-Cyclopropyl-3-hydroxy-1-(3-imidazol-1-yl-propyl)-4-pentyl-1,5-dihydro-pyrrol-2-one], the IC50 (read-out: IC50) stood at 400 nM.
`CCCCCC1=C(O)C(=O)N(CCCn2ccnc2)C1c1ccco1` (stereo not drawn) [Compound 213, 5-Furan-2-yl-3-hydroxy-1-(3-imidazol-1-yl-propyl)-4-pentyl-1,5-dihydro-pyrrol-2-one]: the IC50 under setting [1] is 1310 nM and the IC50 (read-out: IC50) was found to be 40 nM.
As to `CCCCCC1=C(O)C(=O)N(CCCn2ccnc2)C1CCCC` (stereo not drawn) [Compound 214, 5-Butyl-3-hydroxy-1-(3-imidazol-1-yl-propyl)-4-pentyl-1,5-dihydro-pyrrol-2-one], for the setting “read-out: IC50”, the IC50 was 400 nM.
On the same count and under the same terms, under `CCCCCC1=C(O)C(=O)N(CCCn2ccnc2)C1CC` (stereo not drawn) [Compound 215, 5-Ethyl-3-hydroxy-1-(3-imidazol-1-yl-propyl)-4-pentyl-1,5-dihydro-pyrrol-2-one] stands 1300 nM.
Regarding `CCCCCC1=C(O)C(=O)N(CCCn2ccnc2)C1c1cccc(Cl)c1` (stereo not drawn) [Compound 216, 5-(3-Chloro-phenyl)-3-hydroxy-1-(3-imidazol-1-yl-propyl)-4-pentyl-1,5-dihydro-pyrrol-2-one], the IC50 worked out at 236 nM under setting [1] and 40 nM (read-out: IC50).
For `CCCCCC1=C(O)C(=O)N(CCCn2ccnc2)C1c1ccccc1F` (stereo not drawn) [Compound 217, 5-(2-Fluoro-phenyl)-3-hydroxy-1-(3-imidazol-1-yl-propyl)-4-pentyl-1,5-dihydro-pyrrol-2-one] the same measures were 1540 nM and 40 nM.
Regarding `CCCCCC1=C(O)C(=O)N(CCCn2ccnc2)C1c1ccc(O)cc1` (stereo not drawn) [Compound 218, 3-Hydroxy-5-(4-hydroxy-phenyl)-1-(3-imidazol-1-yl-propyl)-4-pentyl-1,5-dihydro-pyrrol-2-one], the half-inhibitory concentration (IC50) was found to be 613 nM under setting [1] and 40 nM (read-out: IC50).
For `CCCCCC1=C(O)C(=O)N(CCCn2ccnc2)C1c1cccc(O)c1` (stereo not drawn) [Compound 219, 3-Hydroxy-5-(3-hydroxy-phenyl)-1-(3-imidazol-1-yl-propyl)-4-pentyl-1,5-dihydro-pyrrol-2-one] the same measures were 698 nM and 40 nM.
Consider `CCC1=C(O)C(=O)N(CCCn2ccnc2)C1c1cc(Cl)cc(Cl)c1O` (stereo not drawn) [Compound 220, 5-(3,5-Dichloro-2-hydroxy-phenyl)-4-ethyl-3-hydroxy-1-(3-imidazol-1-yl-propyl)-1,5-dihydro-pyrrol-2-one], for which the IC50 (read-out: IC50) worked out at 2200 nM.
Consider `CCC1=C(O)C(=O)N(CCCn2ccnc2)C1c1ccc(C)cc1` (stereo not drawn) [Compound 221, 4-Ethyl-3-hydroxy-1-(3-imidazol-1-yl-propyl)-5-p-tolyl-1,5-dihydro-pyrrol-2-one], for which the IC50 (read-out: IC50) was 400 nM.

The record behind these values is patent US8278345B2, “Inhibitors of glutaminyl cyclase” (Probiodrug AG, priority 2006, dated 2012).
